Assays:
[1] = molecular target: T1, 5-hydroxytryptamine receptor 3A (Homo sapiens) (UniProt P46098); assay: Antagonist activity at recombinant human 5-HT3 assessed as inhibition of agonist-induced effect at 10 uM by aequorin reporter based assay
T1 sequence (whole entry): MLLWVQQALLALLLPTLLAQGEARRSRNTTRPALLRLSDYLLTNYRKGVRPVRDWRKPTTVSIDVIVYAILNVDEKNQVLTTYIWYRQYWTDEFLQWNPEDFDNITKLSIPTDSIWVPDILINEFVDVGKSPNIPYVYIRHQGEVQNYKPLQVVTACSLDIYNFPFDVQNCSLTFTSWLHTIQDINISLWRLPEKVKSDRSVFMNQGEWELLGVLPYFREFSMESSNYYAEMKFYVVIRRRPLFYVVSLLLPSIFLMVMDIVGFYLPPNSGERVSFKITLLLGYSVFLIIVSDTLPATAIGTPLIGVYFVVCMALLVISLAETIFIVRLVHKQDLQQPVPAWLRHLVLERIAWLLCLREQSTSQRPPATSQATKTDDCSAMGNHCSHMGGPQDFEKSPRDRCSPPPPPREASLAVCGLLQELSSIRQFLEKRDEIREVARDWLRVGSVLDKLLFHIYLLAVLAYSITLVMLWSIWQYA

[2] = molecular target: 5-hydroxytryptamine receptor 4 (Homo sapiens) (UniProt Q13639); assay: Antagonist activity at recombinant human 5-HT4E assessed as inhibition of agonist-induced cAMP levels at 10 uM by HTRF assay; assay type: functional
[3] = molecular target: 5-hydroxytryptamine receptor 5A (Homo sapiens) (UniProt P47898); assay: Antagonist activity at recombinant human 5-HT5A assessed as inhibition of agonist-induced effect at 10 uM by aequorin reporter based assay; assay type: functional
[4] = molecular target: Beta-1 adrenergic receptor (Homo sapiens) (UniProt P08588); assay: Agonist activity at recombinant human beta-1 adrenergic receptor assessed as induction of cAMP levels at 10 uM by HTRF assay relative to agonist; assay type: functional
[5] = molecular target: T2, Alpha-1A adrenergic receptor (Homo sapiens) (UniProt P35348); assay: Antagonist activity at recombinant human alpha-1a adrenergic receptor assessed as inhibition of agonist-induced […] reporter based assay; assay type: functional
T2 sequence (whole entry): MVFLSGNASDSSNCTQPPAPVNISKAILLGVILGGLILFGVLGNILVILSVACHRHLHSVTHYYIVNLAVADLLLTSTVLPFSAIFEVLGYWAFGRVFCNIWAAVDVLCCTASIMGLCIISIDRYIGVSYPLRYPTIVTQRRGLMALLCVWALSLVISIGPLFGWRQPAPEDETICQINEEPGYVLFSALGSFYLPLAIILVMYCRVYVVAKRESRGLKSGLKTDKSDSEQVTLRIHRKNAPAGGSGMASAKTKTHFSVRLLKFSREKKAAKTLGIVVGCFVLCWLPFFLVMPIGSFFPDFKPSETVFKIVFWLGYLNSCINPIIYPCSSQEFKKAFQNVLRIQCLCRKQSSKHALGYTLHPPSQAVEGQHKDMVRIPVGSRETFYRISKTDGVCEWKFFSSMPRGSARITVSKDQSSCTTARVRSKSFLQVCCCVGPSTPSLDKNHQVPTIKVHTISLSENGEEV

[6] = molecular target: T3, Cholecystokinin receptor type A (Homo sapiens) (UniProt P32238); assay: Agonist activity at recombinant human […] receptor at 10 uM by aequorin reporter based assay relative to agonist; assay type: functional
T3 sequence (whole entry): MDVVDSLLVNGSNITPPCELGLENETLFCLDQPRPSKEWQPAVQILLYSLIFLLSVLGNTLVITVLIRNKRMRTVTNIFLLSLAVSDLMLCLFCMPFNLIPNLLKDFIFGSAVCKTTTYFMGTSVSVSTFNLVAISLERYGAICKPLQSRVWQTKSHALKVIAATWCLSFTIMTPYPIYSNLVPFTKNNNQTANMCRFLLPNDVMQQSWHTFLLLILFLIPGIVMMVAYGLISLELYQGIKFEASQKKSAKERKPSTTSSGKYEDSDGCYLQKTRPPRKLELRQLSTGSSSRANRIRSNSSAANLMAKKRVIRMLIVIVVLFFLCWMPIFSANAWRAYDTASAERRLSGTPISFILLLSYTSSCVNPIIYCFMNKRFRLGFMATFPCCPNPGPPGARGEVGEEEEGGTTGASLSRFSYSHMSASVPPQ

[7] = molecular target: T3, Cholecystokinin receptor type A (Homo sapiens); assay: Antagonist activity at recombinant human […] receptor assessed as inhibition of agonist induced effect at 10 uM by aequorin reporter based assay; assay type: functional
[8] = molecular target: Histamine H1 receptor (Homo sapiens) (UniProt P35367); assay: Antagonist activity at recombinant human histamine H1 receptor assessed as inhibition of agonist-induced effect at 10 uM by aequorin reporter based assay; assay type: functional
[9] = molecular target: T4, Muscarinic acetylcholine receptor M1 (Homo sapiens) (UniProt P11229); assay: Antagonist activity at recombinant human muscarinic M1 receptor assessed as inhibition of agonist-induced effect at 10 uM by aequorin reporter based assay; assay type: functional
T4 sequence (whole entry): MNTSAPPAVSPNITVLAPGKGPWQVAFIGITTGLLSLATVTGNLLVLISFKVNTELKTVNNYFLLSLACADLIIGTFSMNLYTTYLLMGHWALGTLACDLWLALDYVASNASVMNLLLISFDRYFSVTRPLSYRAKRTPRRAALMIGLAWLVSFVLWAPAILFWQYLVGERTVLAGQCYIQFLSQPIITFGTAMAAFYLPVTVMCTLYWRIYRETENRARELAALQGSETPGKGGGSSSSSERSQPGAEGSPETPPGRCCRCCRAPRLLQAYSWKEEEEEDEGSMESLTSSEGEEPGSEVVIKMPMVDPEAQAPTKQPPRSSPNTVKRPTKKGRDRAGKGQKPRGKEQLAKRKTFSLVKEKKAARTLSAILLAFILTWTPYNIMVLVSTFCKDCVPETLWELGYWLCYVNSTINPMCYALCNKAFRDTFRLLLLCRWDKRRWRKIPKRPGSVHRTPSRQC

[10] = molecular target: Substance-P receptor (Homo sapiens) (UniProt P25103); assay: Agonist activity at recombinant human NK1R at 10 uM by aequorin reporter based assay relative to agonist; assay type: functional
[11] = molecular target: Somatostatin receptor type 4 (Homo sapiens) (UniProt P31391); assay: Agonist activity at recombinant human somatostatin receptor 4 at 10 uM by GTPgamma[35S] binding-based assay relative to agonist; assay type: functional
[12] = molecular target: Vasopressin V1a receptor (Homo sapiens) (UniProt P37288); assay: Agonist activity at recombinant human V1A receptor at 10 uM by aequorin reporter based assay relative to agonist; assay type: functional
Vasopressin V1a receptor (Homo sapiens), sequence (P37288 whole entry, looked up): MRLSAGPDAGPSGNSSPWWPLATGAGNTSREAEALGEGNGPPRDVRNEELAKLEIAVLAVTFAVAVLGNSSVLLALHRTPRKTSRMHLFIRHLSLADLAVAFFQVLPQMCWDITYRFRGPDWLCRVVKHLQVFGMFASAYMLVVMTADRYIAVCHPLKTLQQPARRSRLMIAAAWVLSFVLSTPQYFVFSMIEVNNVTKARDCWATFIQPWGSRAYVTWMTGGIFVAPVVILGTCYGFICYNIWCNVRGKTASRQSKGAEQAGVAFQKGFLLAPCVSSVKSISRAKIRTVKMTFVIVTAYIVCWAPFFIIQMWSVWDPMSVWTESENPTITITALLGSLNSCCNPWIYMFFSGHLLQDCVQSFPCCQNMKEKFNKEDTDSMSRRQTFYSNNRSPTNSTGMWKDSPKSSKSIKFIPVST

Histamine H1 receptor (Homo sapiens), sequence (P35367 whole entry): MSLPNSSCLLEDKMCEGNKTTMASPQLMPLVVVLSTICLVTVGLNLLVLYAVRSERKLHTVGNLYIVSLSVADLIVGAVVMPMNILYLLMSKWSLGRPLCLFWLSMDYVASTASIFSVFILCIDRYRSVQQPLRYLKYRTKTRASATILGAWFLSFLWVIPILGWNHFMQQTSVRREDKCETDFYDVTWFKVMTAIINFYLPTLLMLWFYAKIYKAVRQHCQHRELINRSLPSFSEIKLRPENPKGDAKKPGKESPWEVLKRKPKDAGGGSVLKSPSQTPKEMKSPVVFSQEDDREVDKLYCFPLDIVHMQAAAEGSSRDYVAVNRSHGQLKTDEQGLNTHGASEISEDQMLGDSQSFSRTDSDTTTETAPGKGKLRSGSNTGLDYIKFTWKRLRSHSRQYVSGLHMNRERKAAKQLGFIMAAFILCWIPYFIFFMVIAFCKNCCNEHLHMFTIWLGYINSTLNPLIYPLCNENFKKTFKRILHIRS
Beta-1 adrenergic receptor (Homo sapiens), sequence (P08588 whole entry, looked up): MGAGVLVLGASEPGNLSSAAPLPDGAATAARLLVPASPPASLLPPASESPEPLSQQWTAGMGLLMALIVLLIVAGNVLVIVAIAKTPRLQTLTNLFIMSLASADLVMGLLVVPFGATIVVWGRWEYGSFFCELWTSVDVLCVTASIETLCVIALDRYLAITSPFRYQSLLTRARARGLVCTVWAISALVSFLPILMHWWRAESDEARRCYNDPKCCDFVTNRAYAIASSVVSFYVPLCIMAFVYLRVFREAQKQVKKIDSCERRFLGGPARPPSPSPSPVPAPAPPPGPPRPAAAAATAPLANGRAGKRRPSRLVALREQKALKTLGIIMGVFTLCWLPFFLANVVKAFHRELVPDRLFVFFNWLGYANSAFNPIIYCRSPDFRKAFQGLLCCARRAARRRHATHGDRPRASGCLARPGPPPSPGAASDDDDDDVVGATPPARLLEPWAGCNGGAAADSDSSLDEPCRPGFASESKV
5-hydroxytryptamine receptor 5A (Homo sapiens), sequence (P47898 whole entry): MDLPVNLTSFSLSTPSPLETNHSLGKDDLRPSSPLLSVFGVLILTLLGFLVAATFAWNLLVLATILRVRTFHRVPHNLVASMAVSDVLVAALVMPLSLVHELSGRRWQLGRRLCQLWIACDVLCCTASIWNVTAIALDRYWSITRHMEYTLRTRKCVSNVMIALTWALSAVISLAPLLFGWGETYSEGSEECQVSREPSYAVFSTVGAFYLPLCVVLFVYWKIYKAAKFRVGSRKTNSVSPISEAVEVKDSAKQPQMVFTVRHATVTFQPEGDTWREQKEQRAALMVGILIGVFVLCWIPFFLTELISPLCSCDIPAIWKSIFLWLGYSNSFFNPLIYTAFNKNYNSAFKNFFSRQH
Substance-P receptor (Homo sapiens), sequence (P25103 whole entry): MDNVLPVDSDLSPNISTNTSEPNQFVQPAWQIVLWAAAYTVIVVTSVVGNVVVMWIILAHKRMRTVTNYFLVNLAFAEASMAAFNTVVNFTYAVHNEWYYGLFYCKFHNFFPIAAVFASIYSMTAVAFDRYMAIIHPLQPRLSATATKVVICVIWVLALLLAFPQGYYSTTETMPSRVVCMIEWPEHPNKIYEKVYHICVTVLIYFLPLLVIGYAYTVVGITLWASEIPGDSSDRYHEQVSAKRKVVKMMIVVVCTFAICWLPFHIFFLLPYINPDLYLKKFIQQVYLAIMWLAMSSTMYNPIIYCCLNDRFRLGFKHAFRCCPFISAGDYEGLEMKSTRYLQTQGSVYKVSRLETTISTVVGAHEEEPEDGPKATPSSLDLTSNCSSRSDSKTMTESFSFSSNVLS
Somatostatin receptor type 4 (Homo sapiens), sequence (P31391 whole entry): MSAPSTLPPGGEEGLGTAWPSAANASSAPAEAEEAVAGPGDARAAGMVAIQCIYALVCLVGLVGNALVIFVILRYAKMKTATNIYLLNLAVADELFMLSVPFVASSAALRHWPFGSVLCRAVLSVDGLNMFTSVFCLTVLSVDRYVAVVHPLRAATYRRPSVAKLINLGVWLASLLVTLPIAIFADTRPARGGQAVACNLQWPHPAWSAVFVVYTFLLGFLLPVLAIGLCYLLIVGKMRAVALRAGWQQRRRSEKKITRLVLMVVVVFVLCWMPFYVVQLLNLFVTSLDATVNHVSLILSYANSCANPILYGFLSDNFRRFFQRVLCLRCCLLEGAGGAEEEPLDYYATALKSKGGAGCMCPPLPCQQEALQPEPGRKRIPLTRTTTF
5-hydroxytryptamine receptor 4 (Homo sapiens), sequence (Q13639 whole entry): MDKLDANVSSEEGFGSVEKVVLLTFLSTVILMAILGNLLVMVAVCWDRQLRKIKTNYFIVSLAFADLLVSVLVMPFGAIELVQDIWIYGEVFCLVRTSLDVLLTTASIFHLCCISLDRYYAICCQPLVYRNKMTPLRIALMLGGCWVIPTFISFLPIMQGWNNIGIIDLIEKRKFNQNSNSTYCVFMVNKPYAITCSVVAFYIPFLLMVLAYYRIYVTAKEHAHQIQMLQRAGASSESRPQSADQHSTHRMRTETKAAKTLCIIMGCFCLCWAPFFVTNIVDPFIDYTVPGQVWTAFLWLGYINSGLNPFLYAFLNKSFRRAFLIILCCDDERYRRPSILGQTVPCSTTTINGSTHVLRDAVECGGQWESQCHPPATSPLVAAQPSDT

Row | Structure (SMILES) | inhibition [1] [%] | inhibition [2] [%] | inhibition [3] [%] | Activity [4] [%] | inhibition [5] [%] | Activity [6] [%] | inhibition [7] [%] | inhibition [8] [%] | inhibition [9] [%] | Activity [10] [%] | Activity [11] [%] | Activity [12] [%]
1 | CN(CCNC(=O)c1ccc([N+](=O)[O-])cc1)Cc1ccccc1 | 30 | 2 | 36 | -3 | 62 | -2 | 18 | 26 | 31 | 0 | -1 | 0
2 | CN(CCCNC(=O)c1ccc(C(F)(F)F)cc1)Cc1ccccc1 | 75 | -9 | 14 | 2 | 79 | -2 | 22 | 24 | 88 | 0 | -5 | 0
3 | CN(CCCNC(=O)c1ccc(Cl)cc1)Cc1ccccc1 | 42 | -4 | 17 | 4 | 92 | -1 | 12 | 34 | 89 | 0 | -6 | 1
4 | CCCc1ccc(C(=O)NCCCN(C)Cc2ccccc2)cc1 | 90 | 0 | 13 | 6 | 96 | -1 | 17 | 25 | 98 | 0 | -1 | 0
5 | CN(CCNC(=O)c1ccc(C#N)cc1)Cc1ccccc1 | 75 | -2 | 28 | -5 | 56 | -2 | 21 | 35 | 6 | 0 | -1 | 0
6 | COc1cccc(C(=O)NCCCN(C)Cc2ccccc2)c1 | 28 | 12 | 16 | -10 | 82 | -2 | 18 | 57 | 34 | 0 | -4 | 0
7 | CN(CCCNC(=O)c1ccc(Cl)cc1)CCc1ccccc1 | 62 | 4 | 40 | 18 | 95 | -2 | 29 | 90 | 86 | 0 | 15 | 0
8 | CN(CCCNC(=O)c1ccc([N+](=O)[O-])cc1)Cc1ccccc1 | 23 | -6 | 17 | 3 | 95 | -1 | 14 | 21 | 85 | 0 | -2 | -1
9 | COc1ccc(C(=O)NCCCN(C)Cc2ccccc2)cc1 | 19 | 8 | 16 | -12 | 52 | -1 | 14 | 12 | 20 | 0 | -3 | 0
10 | CN(CCCNC(=O)c1cccc(Br)c1)Cc1ccccc1 | 83 | -2 | 23 | 10 | 97 | 0 | 10 | 74 | 96 | 0 | -2 | -1
11 | CN(CCNC(=O)c1ccc(Cl)cc1)Cc1ccccc1 | 51 | -3 | 22 | 7 | 96 | -2 | 26 | 32 | 69 | 0 | 1 | 0
12 | CN(CCCNC(=O)c1ccc(Br)cc1)Cc1ccccc1 | 79 | -5 | 8 | 2 | 93 | -1 | -5 | 28 | 89 | 0 | -4 | 1

Reference: ChEMBL document CHEMBL4130363, “Synthesis and pharmacological evaluation of benzamide derivatives as potent and selective sigma-1 protein ligands” (Eur J Med Chem, 2017)
